# Data: patent US9585880B2, “Cyclic amino compounds for use in the treatment of cardiac disorders” (Universitetet I Oslo, priority 2013, dated 2017)
# Structures can show the parent of a compound that is named as a salt.
# Molecular target: AKAP18δ-PLB interaction (UniProt P26678+Q6JP77)
# Assay: AlphaScreen binding assay of the GST-AKAP18δ : PLB-biotin interaction
# Settings: compound library screen; Table 1 compounds similar to those of formula (I); read-out: EC50
# Method: Stable and optimal assay conditions were determined by cross-titrating GST-AKAP186 and biotinylated PLB using 10 μg/ml glutathione acceptor beads and 10 μg/ml streptavidin donor beads in an AlphaScreen assay. The excitation wavelength was 680 nm, with the emission wavelength being 520-560 nm. Signal intensity in each well was registered and the optimal concentration to use was chosen to be the concentration prior to the peak of the signal.
# Concentrations to give a reliable signal were determined to be between 2 and 16 nM for AKAP18δ-GST and 4 and 20 nM PLB-biotin for relevant preparations of protein, for example 4 nM and 20 nM, respectively.
# compound library was screened with the above assay.
# The compounds of Examples 2-10 were tested for pharmacological activity using the Binding Assay described above. The compounds of Examples 2-10 were dissolved in DMSO to a concentration of 10 mM, diluted in aqueous solution and tested for their ability to disrupt the AKAP18δ-PLB interaction at different concentrations in the AlphaScreen binding assay as described above.
# Signal intensity was recorded at each concentration of compound. Maximal signal representing full interaction between AKAP186 and PLB at 0 μM compound was set to 100% and loss of signal (due to compound disruption of the protein-protein interaction) plotted against log [conc compound] and curves fitted in SigmaPlot (see FIGS. 2a-2i).
# AKAP18δ-PLB interaction, sequence (Q6JP77 whole entry): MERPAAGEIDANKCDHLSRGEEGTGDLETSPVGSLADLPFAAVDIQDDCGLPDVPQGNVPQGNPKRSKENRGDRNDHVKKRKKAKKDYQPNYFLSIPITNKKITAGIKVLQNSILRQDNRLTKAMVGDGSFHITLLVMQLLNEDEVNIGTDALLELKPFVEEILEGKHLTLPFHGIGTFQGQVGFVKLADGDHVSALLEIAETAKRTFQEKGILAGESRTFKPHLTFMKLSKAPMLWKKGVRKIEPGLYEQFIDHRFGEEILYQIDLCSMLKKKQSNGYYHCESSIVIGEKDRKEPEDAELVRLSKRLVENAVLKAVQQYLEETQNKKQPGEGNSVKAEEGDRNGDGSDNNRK
# AKAP18δ-PLB interaction, sequence (P26678 whole entry): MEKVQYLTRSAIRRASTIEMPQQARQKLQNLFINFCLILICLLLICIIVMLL
row,EC50 [mM],SMILES
1,0.0416,CC(C)(C)c1ccc(CN(Cc2ccc(F)cc2)Cc2nc(C(=O)O)cs2)cc1
2,0.137,Cc1ccc(CN(Cc2ccc(F)cc2)Cc2nc(C(=O)O)cs2)cc1
3,0.0106,O=C(O)c1csc(CN(CCC(c2ccccc2)c2ccccc2)Cc2ccccc2F)n1
4,0.018,O=C(O)c1csc(CN(CCC(c2ccccc2)c2ccccc2)Cc2ccc(F)cc2)n1
5,0.0211,CC(C)(C)c1ccc(CN(CCC(c2ccccc2)c2ccccc2)Cc2nc(C(=O)O)cs2)cc1
6,0.0256,COc1ccc(CN(Cc2ccc(F)cc2)Cc2nc(C(=O)O)cs2)cc1
7,0.0354,Cc1ccc(CN(CCC(c2ccccc2)c2ccccc2)Cc2nc(C(=O)O)cs2)cc1
8,0.0296,O=C(O)c1ccc(CN(Cc2ccccc2)Cc2ccc(C(=O)O)cc2)cc1
9,0.0038,Nc1ccc(CN(Cc2ccccc2)Cc2ccc(N)cc2)cc1
10,0.0029,CCN(CC)c1ccc(CN(Cc2ccccc2)Cc2ccc(N(CC)CC)cc2)cc1
11,0.0222,Nc1ccc(CN(Cc2ccc(N)cc2)Cc2ccc(N)cc2)cc1
12,0.0025,Cc1ccc(NC(=O)Nc2ccc(CN(Cc3ccccc3)Cc3ccc(NC(=O)Nc4ccc(C)cc4)cc3)cc2)cc1
13,0.0364,O=C(O)c1csc(CN(Cc2ccc(F)cc2)Cc2cccc(Cl)c2)n1
14,0.0395,O=C(O)c1csc(CN(Cc2ccc(F)cc2)Cc2ccc(OCc3ccccc3)cc2)n1
15,0.0605,O=C(O)c1csc(CN(Cc2ccc(F)cc2)Cc2cccc(C(F)(F)F)c2)n1
16,0.0943,O=C(O)c1csc(CN(Cc2ccc(F)cc2)Cc2ccc(Cl)cc2)n1
17,0.0983,Cc1ccc(CN(Cc2cccc(C(F)(F)F)c2)Cc2nc(C(=O)O)cs2)cc1
18,0.216,O=C(O)c1csc(CN(Cc2cccc(C(F)(F)F)c2)Cc2ccccc2F)n1
19,0.0075,O=[N+]([O-])c1ccc(CN(Cc2ccccc2)Cc2ccc([N+](=O)[O-])cc2)cc1
20,0.0093,O=C(Nc1ccc(F)cc1)Nc1ccc(CN(Cc2ccccc2)Cc2ccc(NC(=O)Nc3ccc(F)cc3)cc2)cc1
21,0.0036,O=C(Nc1ccccc1)Nc1ccc(CN(Cc2ccccc2)Cc2ccc(NC(=O)Nc3ccccc3)cc2)cc1
22,0.0052,Cc1ccc(NC(=O)Nc2ccc(CN(Cc3ccc(NC(=O)Nc4ccc(C)cc4)cc3)Cc3ccc(NC(=O)Nc4ccc(C)cc4)cc3)cc2)cc1
23,0.002,CN(C)c1ccc(CN(Cc2ccccc2)Cc2ccc(N(C)C)cc2)cc1

# Same assay, conditions: half-maximal disruption of AKAP18δ-PLB signal; compounds of Examples 2-10; read-out: EC50
row,EC50 [mM],SMILES
1,0.142,"Cc1ccc(CN2CCc3ccccc3C2)cc1 [Compound 2, N-4-methyl-benzyl-1,2,3,4-tetrahydroisoquinoline]"
2,0.0553,"CC(C)(C)c1ccc(CN2CCc3ccccc3C2)cc1 [Compound 3, N-4-t-butyl-benzyl-1,2,3,4-tetrahydroisoquinoline hydrochloride salt]"
3,0.0645,"Brc1ccc(CN2CCc3ccccc3C2)cc1 [Compound 5, N-4-bromo-benzyl-1,2,3,4-tetrahydroisoquinoline hydrochloride salt]"
4,0.0715,"O=[N+]([O-])c1ccc(CN2CCc3ccccc3C2)cc1 [Compound 6, N-4-nitro-benzyl-1,2,3,4-tetrahydroisoquinoline]"
5,0.207,"c1ccc(CN2Cc3ccccc3C2)cc1 [Compound 7, N-benzyl-isoindoline hydrochloride salt]"
6,0.0718,"c1ccc2c(c1)CN(Cc1ccncc1)C2 [Compound 8, N-4-methylpyridyl-isoindoline]"

# Same assay, conditions: half-maximal disruption of AKAP18δ-PLB signal; compounds of Examples 2-10; value in mM
row,EC50,SMILES
1,single-digit,"Cl.c1ccc(CN2CCc3ccccc3C2)cc1 [Compound 4, N-4-benzyl-1,2,3,4-tetrahydroisoquinoline hydrochloride salt]"

# Same assay, conditions: half-maximal disruption of AKAP18δ-PLB signal; compounds of Examples 2-10; value in mM; read-out: EC50
row,EC50 [mM],SMILES
1,6.5,"Cl.c1ccc(CN2CCc3ccccc3C2)cc1 [Compound 4, N-4-benzyl-1,2,3,4-tetrahydroisoquinoline hydrochloride salt]"
